Columns and labels:
lck protein kinase = biological target: T1, lck protein kinase (Homo sapiens, UniProt P06239); assay: Biochemical lck assay - ELISA; details: Table 7; 10 μM ATP, GST-zeta substrate
T1 construct: made in house; host or cells: Schizosaccharomyces pombe strain SP200 (lysate)
Protocol: This assay is used to determine lck protein kinase activities measuring phosphorylation of GST-.zeta. as the readout.
(§1) b. Yeast transformed with lck. […] S. Pombe strain SP200 (h-s leul.32 ura4 ade210) is grown as described and transformations with pRSP expression plasmids are done by the lithium acetate method (Superti-Furga, supra). Cells are grown in the presence of 1 μM thiamine to induce expression.
2. Add 0.08 mL Kinase Reaction Mixture per well (containing 10 μl of 10×Kinase Buffer and 2 μg GST-.zeta. per well diluted with water).
(§2) 3. Add 10 μL of compound diluted in water containing 10% DMSO and pre-incubate for 15 minutes at room temperature.
4. Start kinase reaction by adding 10 μL/well of 0.1 mM ATP in water (10 μM ATP final).
The IC50 values were measured for one of the compounds of the invention.

HUV-EC-C cells = assay: HUV-EC-C assay, aFGF (3H-thymidine incorporation); assay type: cell-based, human; details: Homo sapiens, Table 9; aFGF (ECGF)-stimulated HUV-EC-C, 3H-thymidine; read-out: aFGF IC50
Protocol: The following protocol may also be used to measure a compound's activity against PDGF-R, FGF-R, VEGF, aFGF or Flk-1/KDR, all of which are naturally expressed by HUV-EC cells.
1. […] After cells have detached from the flask, add an equal volume of assay medium and transfer to a 50 mL sterile centrifuge tube (Fisher Scientific; catalogue no. 05-539-6).
1. Make up two-fold drug titrations in separate 96-well plates, generally 50 μM on down to 0 μM. Use the same assay medium as mentioned in day 0, step 2 above. Titrations are made by adding 90 μl/well of drug at 200 μM (4×the final well concentration) to the top well of a particular plate column. Since the stock drug concentration is usually 20 mM in DMSO, the 200 μM drug concentration contains 2% DMSO.
Therefore, diluent made up to 2% DMSO in assay medium (F12K+0.5% fetal bovine serum) is used as diluent for the drug titrations in order to dilute the drug but keep the DMSO concentration constant. Add this diluent to the remaining wells in the column at 60 μl/well. Take 60 μl from the 120 μl of 200 μM drug dilution in the top well of the column and mix with the 60 μl in the second well of the column. Take 60 μl from this well and mix with the 60 μl in the third well of the column, and so on until two-fold titrations are completed. When the next-to-the-last well is mixed, take 60 μl of the 120 μl in this well and discard it. Leave the last well with 60 μl of DMSO/media diluent as a non-drug-containing control. Make 9 columns of titrated drug, enough for triplicate wells each for 1) VEGF (obtained from Pepro Tech Inc., catalogue no. 100-200, 2) endothelial cell growth factor (ECGF) (also known as acidic fibroblast growth factor, or aFGF) (obtained from Boehringer Mannheim Biochemica, catalogue no. 1439 600); or, 3) human PDGF B/B (1276-956, Boehringer Mannheim, Germany) and assay media control. ECGF comes as a preparation with sodium heparin.
2. Transfer 50 μl/well of the drug dilutions to the 96-well assay plates containing the 0.8-1.0×10^4 cells/100 μl/well of the HUV-EC-C cells from day 0 and incubate ~2 h at 37° C., 5% CO2.
3. In triplicate, add 50 μl/well of […] VEGF, 20 ng/mL ECGF, or media control to each drug condition. As with the drugs, the growth factor concentrations are 4×the desired final concentration. Use the assay media from day 0 step 2 to make the concentrations of growth factors. Incubate approximately 24 hours at 37° C., 5% CO2. Each well will have 50 μl drug dilution, 50 μl growth factor or media, and 100 ul cells, =200 ul/well total. Thus the 4×concentrations of drugs and growth factors become 1× once everything has been added to the wells.
1. Add ^3 H-thymidine (Amersham; catalogue no. TRK-686) at 1 μCi/well (10 μl/well of 100 μCi/mL solution made up in RPMI media+10% heat-inactivated fetal bovine serum) and incubate ~24 h at 37° C., 5% CO2. RPMI is obtained from Gibco BRL, catalogue no. 11875-051.
1. Thaw plates and harvest with a 96-well plate harvester (Tomtec Harvester 96®) onto filter mats (Wallac; catalogue no. 1205-401); read counts on a Wallac Betaplate™ liquid scintillation counter.
(§3) The IC50 values were measured for several of the compounds of the invention.

src protein kinase = biological target: T2, src protein kinase (Gallus gallus, UniProt P00523); assay: Biochemical src assay - ELISA; details: Table 6; 5 μM ATP, biotinylated peptide substrate
T2 construct: made in house; host or cells: Schizosaccharomyces pombe (yeast transformed with src, lysate)
Protocol: This assay is used to determine src protein kinase activity measuring phosphorylation of a biotinylated peptide as the readout.
as §1, with “h.” for “b. Yeast transformed with lck.”, “are” for “with”, “to repress expression from the nmtl promoter or in the absence of thiamine to” for “to”
2. Add 0.08 mL Kinase Reaction Mixture per well (containing 10 μL of 10×Kinase Buffer and 10 μM (final concentration) biotin-[…] per well diluted in water.
as §2
4. Start kinase reaction by adding 10 μL/well of 0.05 mM ATP in water (5 μM ATP final).
as §3

FGFr = assay: FGF-induced BrdU incorporation assay; assay type: cell-based; details: Table 8
PDGFr [1] = biological target: T3, PDGFr (Homo sapiens, UniProt P09619); assay: PDGF-R ELISA; assay type: cell-based; design: cells (U1242, obtained from Joseph Schlessinger, NYU); endogenous in cells; host or cells: U1242
T3 sequence (P09619 33-1106): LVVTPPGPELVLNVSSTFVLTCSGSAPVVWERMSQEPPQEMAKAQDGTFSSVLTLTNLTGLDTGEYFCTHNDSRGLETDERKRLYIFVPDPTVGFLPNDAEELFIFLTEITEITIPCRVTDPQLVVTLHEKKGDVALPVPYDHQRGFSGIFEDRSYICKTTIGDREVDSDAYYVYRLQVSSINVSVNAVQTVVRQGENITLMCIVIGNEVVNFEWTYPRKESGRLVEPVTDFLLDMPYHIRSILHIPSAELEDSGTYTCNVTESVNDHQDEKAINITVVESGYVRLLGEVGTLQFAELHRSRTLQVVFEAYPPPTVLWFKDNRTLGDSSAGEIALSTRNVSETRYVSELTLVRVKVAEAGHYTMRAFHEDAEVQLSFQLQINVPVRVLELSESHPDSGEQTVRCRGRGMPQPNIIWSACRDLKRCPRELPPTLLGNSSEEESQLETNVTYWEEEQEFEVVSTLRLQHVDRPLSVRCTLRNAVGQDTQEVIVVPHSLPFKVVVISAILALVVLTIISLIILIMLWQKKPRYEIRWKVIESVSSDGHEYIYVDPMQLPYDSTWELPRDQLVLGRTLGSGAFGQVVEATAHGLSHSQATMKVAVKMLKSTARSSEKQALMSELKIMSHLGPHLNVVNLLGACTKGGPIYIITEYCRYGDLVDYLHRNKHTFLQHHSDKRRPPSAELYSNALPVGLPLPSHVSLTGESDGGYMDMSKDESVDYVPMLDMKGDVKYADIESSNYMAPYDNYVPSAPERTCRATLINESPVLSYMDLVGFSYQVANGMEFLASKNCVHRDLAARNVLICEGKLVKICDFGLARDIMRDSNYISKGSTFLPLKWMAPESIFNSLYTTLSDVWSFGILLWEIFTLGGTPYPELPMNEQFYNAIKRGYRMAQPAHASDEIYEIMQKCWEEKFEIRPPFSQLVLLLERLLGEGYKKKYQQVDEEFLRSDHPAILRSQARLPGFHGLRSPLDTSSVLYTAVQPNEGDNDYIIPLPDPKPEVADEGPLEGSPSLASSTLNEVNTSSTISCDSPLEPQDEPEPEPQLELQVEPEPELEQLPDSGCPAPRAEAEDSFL

PDGFr [2] = biological target: T3, PDGFr; assay: PDGF-induced BrdU incorporation assay; assay type: cell-based; design: expressed in transfected cells; host or cells: 3T3 cell line
[3] = biological target: Myc-GyrB-FGFR fusion protein; assay: Assay measuring the kinase activity of the FGF receptor (Myc-GyrB-FGFR fusion protein); assay type: biochemical; details: Table 5; 7 μM ATP
Protocol: The following protocol describes the reagents and procedures used to analyze protein tyrosine kinase activity of the Myc-GyrB-FGFR fusion protein.
5. Add 15 μg COS/FGFR cell lysate Myc-GyrB-FGFR sources per well in HNTG for a final volume of 100 μL per well. Incubate while shaking on a micro-liter plate shaker at room temperature for 2 hours.
9. At this point diluted Compounds/Extracts are added to the ELISA plate. Transfer 10 μL of diluted test and control wells from the polypropylene plate wells to the corresponding ELISA plate wells. Incubate while shaking on a micro-liter plate shaker at room temperature for 20 minutes.
10. Add 10 μL of 70 μM ATP diluted in kinase buffer to positive control and test wells (Final ATP concentration is 7 μM/well.) Add 10 μL of 1×kinase buffer to negative control wells. Incubate while shaking on a micro-liter plate shaker at room temperature for 15 min.
22. Read assay on Dynatech MR7000 ELISA Plate Reader.
as §3

EGFr = EGFr (Homo sapiens, UniProt P00533); assay: EGF-induced BrdU incorporation assay; assay type: cell-based; details: Table 8
Chain of EGFr (P00533 25-1210): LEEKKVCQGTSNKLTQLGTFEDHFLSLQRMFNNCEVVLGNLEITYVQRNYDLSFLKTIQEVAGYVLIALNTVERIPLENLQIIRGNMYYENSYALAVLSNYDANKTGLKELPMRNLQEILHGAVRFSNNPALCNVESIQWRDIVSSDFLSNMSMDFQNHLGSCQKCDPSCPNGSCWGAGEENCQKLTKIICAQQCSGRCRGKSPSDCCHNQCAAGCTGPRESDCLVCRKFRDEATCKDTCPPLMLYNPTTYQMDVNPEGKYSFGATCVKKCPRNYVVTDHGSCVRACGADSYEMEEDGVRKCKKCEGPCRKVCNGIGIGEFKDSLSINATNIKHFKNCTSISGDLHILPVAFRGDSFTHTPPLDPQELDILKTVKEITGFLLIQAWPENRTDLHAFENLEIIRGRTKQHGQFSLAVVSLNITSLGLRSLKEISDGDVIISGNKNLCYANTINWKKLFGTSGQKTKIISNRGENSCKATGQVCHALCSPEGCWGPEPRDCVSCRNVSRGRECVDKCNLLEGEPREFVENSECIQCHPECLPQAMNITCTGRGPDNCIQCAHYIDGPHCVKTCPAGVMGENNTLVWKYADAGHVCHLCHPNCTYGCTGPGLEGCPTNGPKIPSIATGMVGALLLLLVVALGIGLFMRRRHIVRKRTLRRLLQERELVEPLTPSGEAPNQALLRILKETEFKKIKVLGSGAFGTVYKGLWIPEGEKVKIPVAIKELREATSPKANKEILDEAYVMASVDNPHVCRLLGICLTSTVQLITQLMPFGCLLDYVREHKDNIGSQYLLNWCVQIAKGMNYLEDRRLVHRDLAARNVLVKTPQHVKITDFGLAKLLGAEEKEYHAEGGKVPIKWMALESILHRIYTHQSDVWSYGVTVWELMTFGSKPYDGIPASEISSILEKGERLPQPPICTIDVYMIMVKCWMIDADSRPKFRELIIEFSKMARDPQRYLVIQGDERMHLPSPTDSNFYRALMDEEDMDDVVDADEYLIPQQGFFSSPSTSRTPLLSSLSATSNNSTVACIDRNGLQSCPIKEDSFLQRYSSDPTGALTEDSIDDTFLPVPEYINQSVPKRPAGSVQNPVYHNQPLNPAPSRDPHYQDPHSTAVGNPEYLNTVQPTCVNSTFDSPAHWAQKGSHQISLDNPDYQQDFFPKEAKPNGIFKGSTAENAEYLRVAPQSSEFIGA

FLK-1 receptor = biological target: T4, FLK-1 receptor (Mus musculus, UniProt P35918); assay: FLK-1 ELISA (kinase activity of the FLK-1 receptor in engineered cells); assay type: cell-based; details: Table 3; VEGF-stimulated NIH3T3 C7#3 cells; read-out: FLK-1 IC50
T4 construct: expressed in transfected cells; host or cells: NIH3T3 C7#3 cells
T4 sequence (P35918 20-1345): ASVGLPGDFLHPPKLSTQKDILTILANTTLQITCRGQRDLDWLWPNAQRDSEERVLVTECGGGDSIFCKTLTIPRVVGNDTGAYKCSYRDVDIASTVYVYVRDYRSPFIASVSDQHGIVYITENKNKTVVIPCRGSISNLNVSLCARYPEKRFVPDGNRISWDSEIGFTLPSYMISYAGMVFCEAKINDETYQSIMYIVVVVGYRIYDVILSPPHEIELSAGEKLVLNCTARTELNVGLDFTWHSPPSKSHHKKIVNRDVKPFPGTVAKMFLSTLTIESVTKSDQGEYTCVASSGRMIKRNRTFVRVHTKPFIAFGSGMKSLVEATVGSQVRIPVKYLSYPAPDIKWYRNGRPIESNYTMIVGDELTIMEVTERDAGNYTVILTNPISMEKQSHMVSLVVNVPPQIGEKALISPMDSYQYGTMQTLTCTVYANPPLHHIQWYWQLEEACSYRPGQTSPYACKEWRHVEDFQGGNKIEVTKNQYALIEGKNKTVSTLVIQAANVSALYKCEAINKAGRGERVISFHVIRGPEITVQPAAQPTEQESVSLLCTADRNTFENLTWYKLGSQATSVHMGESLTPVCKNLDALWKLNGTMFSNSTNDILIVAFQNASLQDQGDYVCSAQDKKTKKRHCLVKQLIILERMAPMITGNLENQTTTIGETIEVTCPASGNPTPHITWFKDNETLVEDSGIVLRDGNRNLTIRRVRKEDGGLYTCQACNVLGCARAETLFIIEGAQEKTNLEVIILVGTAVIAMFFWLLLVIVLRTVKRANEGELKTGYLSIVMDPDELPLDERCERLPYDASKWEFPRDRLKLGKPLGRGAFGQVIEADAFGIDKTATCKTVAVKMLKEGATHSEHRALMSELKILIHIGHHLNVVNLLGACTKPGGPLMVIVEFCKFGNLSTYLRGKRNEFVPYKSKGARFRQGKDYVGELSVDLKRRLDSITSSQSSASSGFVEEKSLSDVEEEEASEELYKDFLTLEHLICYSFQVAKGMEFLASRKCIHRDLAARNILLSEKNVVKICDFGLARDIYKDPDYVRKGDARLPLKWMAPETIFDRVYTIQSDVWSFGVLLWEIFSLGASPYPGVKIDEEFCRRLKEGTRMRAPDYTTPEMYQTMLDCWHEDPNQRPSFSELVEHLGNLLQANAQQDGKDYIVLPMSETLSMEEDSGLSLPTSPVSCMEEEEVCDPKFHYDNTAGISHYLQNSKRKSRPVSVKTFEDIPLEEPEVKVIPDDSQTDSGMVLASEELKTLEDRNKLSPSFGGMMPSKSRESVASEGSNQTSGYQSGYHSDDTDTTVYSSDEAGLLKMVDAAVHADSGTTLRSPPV

[4] = Table 4, ligand-stimulated U1242 cells, read-out: PDGF-R IC50
[5] = Table 8, BrdU incorporation, 3.8 nM PDGF, read-out: PDGFr IC50

T1 sequence (P06239 whole entry): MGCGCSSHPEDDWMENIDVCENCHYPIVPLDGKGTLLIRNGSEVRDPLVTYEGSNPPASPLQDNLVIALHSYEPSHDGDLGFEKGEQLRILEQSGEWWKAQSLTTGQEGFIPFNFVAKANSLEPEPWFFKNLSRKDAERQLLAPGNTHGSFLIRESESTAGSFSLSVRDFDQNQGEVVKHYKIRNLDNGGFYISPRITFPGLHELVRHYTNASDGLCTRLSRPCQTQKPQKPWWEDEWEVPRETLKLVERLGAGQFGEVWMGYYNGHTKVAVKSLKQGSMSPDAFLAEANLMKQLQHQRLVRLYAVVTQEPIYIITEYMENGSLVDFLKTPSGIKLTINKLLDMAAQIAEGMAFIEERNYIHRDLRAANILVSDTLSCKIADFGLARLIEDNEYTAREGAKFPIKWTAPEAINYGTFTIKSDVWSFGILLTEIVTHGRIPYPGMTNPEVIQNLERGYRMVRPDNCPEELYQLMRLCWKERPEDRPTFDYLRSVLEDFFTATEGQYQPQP

Row | IC50 (FLK-1 receptor) [µM] | Compound | IC50 (lck protein kinase) [µM] | IC50 (HUV-EC-C cells) [µM] | IC50 (src protein kinase) [µM] | IC50 (FGFr) [µM] | IC50 (PDGFr [1]; [4]) [µM] | IC50 (PDGFr [2]; [5]) [µM] | IC50 [3] [µM] | IC50 (EGFr) [µM] | IC50 (PDGFr [1]) [µM] | IC50 (PDGFr [2]) [µM]
1 |  | CC(=O)c1ccc2c(c1)C(=Cc1cc3c([nH]1)CCCC3)C(=O)N2 [5-acetyl-3-(4,5,6,7-tetrahydro-1H-indol-2-ylmethylene)-1,3-dihydro-indol-2-one] | > 100 | 28.8 | 17.8 | > 50 | > 100 | > 0.07 | > 20 | 36.5 |  | 
2 |  | COc1ccccc1-c1ccc2c(c1)NC(=O)C2=Cc1[nH]c2c(c1C)CCCC2 [6-(2-methoxyphenyl)-3-(3-methyl-4,5,6,7-tetrahydro-1H-indol-2-ylmethylene)-1,3-dihydro-indol-2-one] |  | > 12.5 |  | > 50 | 95.7 | > 50 | > 100 | > 50 |  | 
3 |  | COc1ccccc1-c1ccc2c(c1)NC(=O)C2=Cc1cc2c([nH]1)CCCC2 [6-(2-methoxyphenyl)-3-(4,5,6,7-tetrahydro-1H-indol-2-ylmethylene)-1,3-dihydro-indol-2-one] |  | 14.6 |  | 43.6 |  |  | > 100 | 34.1 | 12.3 | 1.06
4 |  | CCOc1cccc(-c2ccc3c(c2)NC(=O)C3=Cc2cc3c([nH]2)CCCC3)c1 [6-(3-ethoxyphenyl)-3-(4,5,6,7-tetrahydro-1H-indol-2-ylmethylene)-1,3-dihydro-indol-2-one] |  | > 25 |  | > 50 | > 100 | > 50 | > 20 | > 50 |  | 
5 | > 20 | COc1cccc(-c2ccc3c(c2)NC(=O)C3=Cc2cc3c([nH]2)CCCC3)c1 [6-(3-methoxyphenyl)-3-(4,5,6,7-tetrahydro-1H-indol-2-ylmethylene)-1,3-dihydro-indol-2-one] |  | > 50 |  | > 50 | > 100 | > 50 |  | 31.8 |  | 
6 |  | COc1ccc(-c2ccc3c(c2)NC(=O)C3=Cc2[nH]c3c(c2C)CCCC3)cc1 [6-(4-methoxyphenyl)-3-(3-methyl-4,5,6,7-tetrahydro-1H-indol-2-ylmethylene)-1,3-dihydro-indol-2-one] |  | > 50 |  | > 50 | > 100 | > 50 | > 100 | > 50 |  | 
7 |  | COc1ccc(-c2ccc3c(c2)NC(=O)C3=Cc2cc3c([nH]2)CCCC3)cc1 [6-(4-methoxyphenyl)-3-(4,5,6,7-tetrahydro-1H-indol-2-ylmethylene)-1,3-dihydro-indol-2-one] |  | > 12.5 |  | > 50 |  |  | > 100 | > 50 | 94 | > 50
8 |  | O=C1Nc2cc(Br)ccc2C1=Cc1cc2c([nH]1)CCCC2 [6-bromo-3-(4,5,6,7-tetrahydro-1H-indol-2-ylmethylene)-1,3-dihydro-indol-2-one] |  |  |  |  | > 100 |  | > 20 |  |  | 
9 |  | O=C1Nc2cc(Cl)ccc2C1=Cc1cc2c([nH]1)CCCC2 [6-chloro-3-(4,5,6,7-tetrahydro-1H-indol-2-ylmethylene)-1,3-dihydro-indol-2-one] |  |  |  |  | > 100 |  | > 20 |  |  | 
10 | 17.1 | O=C1Nc2cc(O)ccc2C1=Cc1cc2c([nH]1)CCCC2 [6-hydroxy-3-(4,5,6,7-tetrahydro-1H-indol-2-ylmethylene)-1,3-dihydro-indol-2-one] |  |  | 21 | 6.21 | 47.2 | 0.51 |  | 12.6 |  | 
11 |  | COc1ccc2c(c1)NC(=O)C2=Cc1cc2c([nH]1)CCCC2 [6-methoxy-3-(4,5,6,7-tetrahydro-1H-indol-2-ylmethylene)-1,3-dihydro-indol-2-one] |  |  |  | > 50 |  |  |  | > 50 |  | 
12 |  | O=C1Nc2cc(-c3ccccc3)ccc2C1=Cc1cc2c([nH]1)CCCC2 [6-phenyl-3-(4,5,6,7-tetrahydro-1H-indol-2-ylmethylene)-1,3-dihydro-indol-2-one] |  | > 12.5 |  | > 50 | 70.6 | > 50 | > 100 | > 50 |  | 
13 | > 2.5 | Cc1cc(Br)c2c(c1)C(=Cc1cc3c([nH]1)CCCC3)C(=O)N2 [7-bromo-5-methyl-3-(4,5,6,7-tetrahydro-1H-indol-2-ylmethylene)-1,3-dihydro-indol-2-one] |  |  |  |  | 5.56 |  |  |  |  | 

Row | Compound | IC50 (FLK-1 receptor) [µM] | IC50 (lck protein kinase) [µM] | IC50 (HUV-EC-C cells) [µM] | IC50 (src protein kinase) [µM] | IC50 (FGFr) [µM] | IC50 (PDGFr [1]; [4]) [µM] | IC50 (PDGFr [2]; [5]) [µM] | IC50 [3] [µM] | IC50 (EGFr) [µM] | IC50 (PDGFr [1]) [µM] | IC50 (PDGFr [2]) [µM]
14 | COc1cccc(-c2ccc3c(c2)NC(=O)C3=Cc2[nH]c3c(c2C)CCCC3)c1 [6-(3-methoxyphenyl)-3-(3-methyl-4,5,6,7-tetrahydro-1H-indol-2-ylmethylene)-1,3-dihydro-indol-2-one] | > 5 |  |  |  |  | 5.83 |  | > 20 |  |  | 
15 | Cc1c(C=C2C(=O)Nc3cc(Br)ccc32)[nH]c2c1CCCC2 [6-bromo-3-(3-methyl-4,5,6,7-tetrahydro-1H-indol-2-ylmethylene)-1,3-dihydro-indol-2-one] | 2.19 |  |  |  |  | 40 |  | > 20 |  |  | 

Reference: patent US6114371A, “3-(cyclohexanoheteroarylidenyl)-2-indolinone protein tyrosine kinase inhibitors” (Sugen, Inc., priority 1998, dated 2000)
